# Results from patent US20250204541A1, “GAS PHASE TREATMENT OF PRODUCE” (priority 2022, published 2025).
# Key:
# avocados = type: in vivo
# Protocol: Example 11. The ripening characteristics of avocados exposed to AITC vapor was analyzed. Treatment groups consisted of avocados that were: exposed to the vapor of 125 μL of AITC in a Petri dish for 30 min and 18 hours; exposed to the vapor of 500 μL of AITC for 30 minutes and 18 hours; untreated and kept 18 hours in a bin; and treated with a coating agent. Two sets of the preceding test groups were studied. One set was treated when cold along with coated fruit (i.e., fruit treated with a coating agent (95 wt % glyceryl monostearate and 5 wt % sodium stearate) and another set was treated when warm (one day out of cold storage). Daily measurements were made of respiration and firmness (using a durometer). At the start of the test, the avocados were placed in cold storage. After one day, the cold treated avocados were treated with AITC directly after removal from cold storage. The coated group was treated at this time. The warm treated avocados were allowed to warm to room temperature. On the second day, measurements were begun on the cold treated avocados and AITC treatments began on the warm treated samples. On the third day, measurements began on the warm treated groups. […]
# Example 23: The ripening characteristics of avocados exposed to AITC vapor, a coating agent (95 wt % glyceryl monostearate and 5 wt % sodium stearate), and AITC plus the coating agent was analyzed. […]
# Botrytis cinerea (Bc) = experiment: Antifungal activity of AITC vapor against Botrytis cinerea in strawberries; type: in vivo; conditions: for strawberries infected: Example 14, ambient temperature, day 6
# Protocol: Example 13. The antifungal activity of AITC vapor against Bc in strawberries was tested. All samples were wounded by making a 3 mm deep puncture in the skin. Samples were infected by dispensing 1000 Bc spores suspended in 10 μL of water in the wound. Samples were then incubated at ambient temperature, imaged, and assessed for mold over the following 3 days. The test group consisted of strawberries that were: uninfected and untreated; infected and untreated; and exposed for 30 minutes to the vapor of 125 μL AITC dispensed on Whatman filter paper. […] The infection rates in the initially uninfected sample indicate that the step involving the initial infection of the wound by dispensing the Bc spores may not be necessary to promote infection in the test groups.
# Example 14. The antifungal activity of a range of AITC vapor concentrations against Bc in strawberries was tested. Samples were treated by exposure for 30 minutes to the vapor of a range of volumes of AITC disposed on a filter paper disc, then incubated at ambient temperature, imaged, and assessed for mold over the following 6 days. Test groups consisted of strawberries that were untreated and strawberries exposed to the vapor of 62.5 μL, 125 μL, 250 μL, and 500 μL of AITC. […] On day 6, 83% of the untreated control strawberries were infected, 100% of the 62.5 μL AITC dose strawberries were infected, 13% of the 125 μL AITC dose strawberries were infected, and 0% of the 250 and 500 μL AITC dose strawberries were infected. For strawberries incubated at room temperature, all of the AITC doses above 62.5 μL were effective at preventing mold, with doses above 125 μL substantially eliminating mold.
# Example 15. The antifungal activity of AITC vapor under different exposure conditions against Bc in strawberries was tested. Test groups consisted of strawberries that were untreated and treated by exposure for 30 minutes to the vapor of 125 μL of AITC disposed on a filter paper disc. Test groups were then incubated in either open or closed containers at 4° C., imaged, and assessed for mold over the following 14 days. […] All samples were free of mold through 7 days. On day 12, 16.7% of the open air controls were infected, 29.2% of closed container controls were infected, and 0% of the AITC treated were infected. On day 14, 33.3% of the open air controls were infected, 41.7% of closed container controls were infected, 0% of the open air AITC treated were infected, and 4.2% of the closed container AITC treated were infected. For strawberries incubated at 4° C., AITC treatment was effective in reducing the incidence of mold over a two week period. While ⅓ of the open air untreated samples were infected, none of the open air AITC-treated were infected. Over 40% of the closed container controls were infected. A single strawberry was infected in the closed container AITC-treated test group.
# Example 16. The antifungal activity of AITC vapor against Bc in strawberries treated with a coating agent (95 wt % glyceryl monostearate and 5 wt % sodium stearate) and exposed to vapor in clamshells was tested. Test groups consisted of strawberries that were: untreated; dipped in 40 g/L solution of the coating agent; exposed for 30 minutes to the vapor of 125 μL of AITC disposed on a filter paper disc; and dipped in 40 g/L solution of the coating agent and exposed for 30 minutes to the vapor of 125 μL of AITC disposed on a filter paper disc. Samples were treated, incubated at ambient temperature, imaged, and assessed for mold over the following 4 days. […] On day 3, 52.8% of the controls were infected, 42.1% of the coating agent were infected, 26.3% of the AITC were infected, and 9.3% of the coating agent+AITC were infected. On day 4, 88.9% of the controls were infected, 76.3% of the coating agent were infected, 71% of the AITC were infected, and 34.9% of the coating agent+AITC were infected. […] Bowl dipping in the coating solution also presented challenges for drying around the calyx.
# Example 17. […]
smiles,measurement,setting,value
"C=CCN=C=S [AITC, allyl isothiocyanate]",quality and defects of treated avocados,"avocados; Example 23, avocados, vapor of 500 μL, 11 days of incubation",higher quality and had fewer defects than the untreated avocados and the avocados treated with the coating agent alone
same,effect on avocado peel and firmness,avocados; in vivo,darkening and thickening of the avocado peel and a prolonged feeling a firmness
same,samples showing visible mold,"Botrytis cinerea (Bc); Example 13, strawberries, 30 minutes vapor of 125 μL, after 24 hours",no mold was visible
same,fraction of samples showing visible mold,"Botrytis cinerea (Bc); Example 13, strawberries, 30 minutes vapor of 125 μL, after 48 hours",⅛
same,fraction of samples showing visible mold,"Botrytis cinerea (Bc); Example 13, strawberries, 30 minutes vapor of 125 μL, after 72 hours",¼
same,strawberries infected,"Botrytis cinerea (Bc); 62.5 μL dose, 30 minutes",100%
same,strawberries infected,"Botrytis cinerea (Bc); 125 μL dose, 30 minutes",13%
same,strawberries infected,"Botrytis cinerea (Bc); 250 μL dose, 30 minutes",0%
same,strawberries infected,"Botrytis cinerea (Bc); 500 μL dose, 30 minutes",0%
same,infected,"Botrytis cinerea (Bc); Example 15, strawberries, 125 μL, 30 minutes, 4° C., closed container, day 14",4.2%
same,infected,"Botrytis cinerea (Bc); Example 15, strawberries, 125 μL, 30 minutes, 4° C., open air, day 14",0%
same,infected,"Botrytis cinerea (Bc); Example 15, strawberries, 125 μL, 30 minutes, 4° C., open or closed containers, day 12",0%
same,mold,"Botrytis cinerea (Bc); Example 15, strawberries, 125 μL, 30 minutes, incubated at 4° C., through 7 days",free of mold
same,infected,"Botrytis cinerea (Bc); Example 16, strawberries in clamshells, coating agent 40 g/L dip, AITC 125 μL 30 minutes, ambient, day 3",26.3%
same,infected,"Botrytis cinerea (Bc); Example 16, strawberries in clamshells, coating agent 40 g/L dip, AITC 125 μL 30 minutes, ambient, day 4",71%
